Read-outs that look alike come from different tables or passages of the source.
Experiments:
NK3-receptor = biological target: T1, NK3-receptor (Cavia porcellus, UniProt P30098); experiment: NK-3-receptor-antagonistic effectiveness in vivo, senktide-induced hypertension in guinea pigs; details: guinea pig; for ID50 (iv), inhibition of blood pressure / ID50 (po), inhibition of blood pressure: senktide 0.4 μg/kg i.v.; for ID50 (iv), inhibition of blood pressure: intravenous administration; for ID50 (po), inhibition of blood pressure: oral administration
T1 construct: from tissue; host or cells: whole animal (Dunkin Hartley guinea pigs), in vivo
T1 sequence (P30098 1-440): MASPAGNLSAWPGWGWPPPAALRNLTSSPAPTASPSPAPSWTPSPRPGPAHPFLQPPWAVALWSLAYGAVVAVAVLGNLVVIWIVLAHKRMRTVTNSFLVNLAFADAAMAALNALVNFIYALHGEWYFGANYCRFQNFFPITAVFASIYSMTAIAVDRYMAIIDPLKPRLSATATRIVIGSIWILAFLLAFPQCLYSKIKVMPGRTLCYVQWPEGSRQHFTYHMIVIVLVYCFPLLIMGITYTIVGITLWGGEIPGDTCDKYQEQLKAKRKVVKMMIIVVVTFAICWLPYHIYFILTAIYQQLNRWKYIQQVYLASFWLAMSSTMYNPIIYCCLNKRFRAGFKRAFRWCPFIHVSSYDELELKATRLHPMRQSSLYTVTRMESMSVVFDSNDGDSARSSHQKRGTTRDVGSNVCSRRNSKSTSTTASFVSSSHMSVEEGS
Experimental: 9. Determination of the NK-3-Receptor-Antagonistic Effectiveness of the Test Substances In Vivo (Reduction of Blood Pressure in Guinea-Pigs with Senktide-Induced Hypertension)
NK3 agonists increase the blood pressure in guinea pigs. The senktide-induced hypertension can be antagonized by administering compounds with NK3-antagonistic properties. Measuring the level of hypertension is indicative of the degree of activity of the test compounds. The effect of the tested compound is assessed in the same experiment to exclude an additional hypertensional effect.
Male Dunkin Hartley guinea pigs with a body weight between 450 and 550 g were anesthetized with Ketamin (200 mg/kg i.m.; Aescoket 10%) and the left carotid artery and left jugular vein were cannulated for blood pressure measurement and drug application, respectively. The animals were allowed to breathe spontaneously. Blood pressure was measured with a strain gauge transducer connected to a computer via an amplifier.
For oral administration, vehicle (1% methylcellulose) or test compound was administered in a dose volume of 5 ml/kg. Forty five minutes thereafter, anesthesia was induced and the carotid artery and jugular vein were cannulated.
For intravenous administration, the test compounds were dissolved in 40% hydroxypropyl-β-cyclodextrine (HPCD) containing 10% DMSO, diluted with saline and administered intravenously in cumulative dose ranges. A vehicle group of animals received the corresponding HPCD/DMSO solutions instead of the test compound. For oral administration, the test compound was suspended in 1% methylcellulose. A vehicle group of animals received the corresponding […] of the test compound.

human NK3 receptor = biological target: T2, human NK3 receptor (Homo sapiens, UniProt P29371); experiment: Binding potency of the test substances to NK3-receptors in vitro ([3H]-SR 142801 displacement); set-up: expressed in transfected cells; host or cells: CHO cells (membrane preparation); details: human NK3-receptor in CHO cell membranes, [3H]-SR 142801 (osanetant), average of at least three measurements; for Ki: read-out: pKi, binding potency to NK3-receptors (converted)
T2 sequence (P29371 1-465): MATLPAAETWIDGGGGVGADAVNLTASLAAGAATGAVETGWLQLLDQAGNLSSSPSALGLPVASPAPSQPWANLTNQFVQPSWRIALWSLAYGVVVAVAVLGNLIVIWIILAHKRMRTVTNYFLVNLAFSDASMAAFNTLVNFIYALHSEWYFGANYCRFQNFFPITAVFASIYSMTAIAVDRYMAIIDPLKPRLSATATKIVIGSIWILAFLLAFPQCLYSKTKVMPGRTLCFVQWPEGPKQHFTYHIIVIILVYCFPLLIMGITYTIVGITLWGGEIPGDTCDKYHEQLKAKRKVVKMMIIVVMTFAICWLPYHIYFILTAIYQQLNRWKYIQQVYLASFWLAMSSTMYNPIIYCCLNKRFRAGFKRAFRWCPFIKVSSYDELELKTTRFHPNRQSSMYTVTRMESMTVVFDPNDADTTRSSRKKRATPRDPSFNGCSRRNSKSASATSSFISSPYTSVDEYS
Summary of the method: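 [3H]-osanetant displacement on membranes from CHO cells stably expressing the human receptor, with bound ligand separated by filtration and counted by scintillation. Nonspecific binding defined with 1 μmol/l unlabeled osanetant. IC50 converted to Ki by Cheng-Prusoff and reported as pKi, averaged over measurements.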

NK1-receptor = biological target: T3, NK1-receptor (Cavia porcellus, UniProt P30547); experiment: NK1-receptor-antagonistic effectiveness in vivo, NKA-induced early hypotension in anaesthetised guinea pigs; details: guinea pig; for ED50 iv after 1 min (cumulative), NK1 (early hypotension) / ED50 AUC1-180 min oral, NK1 (early hypotension): NKA 200 pmol/animal i.v.; for ED50 iv after 1 min (cumulative), NK1 (early hypotension): intravenous administration
T3 construct: from tissue; host or cells: whole animal (Pirbright-White guinea pigs), in vivo
From the text: 10. Determination of the NK1- and NK2-Receptor-Antagonistic Effectiveness of the Test Substances In Vivo
The NK1- and NK2-antagonistic activities of the test substances were investigated in anaesthetised guinea pigs in each case after intravenous (=i.v.) and oral (=p.o.) administration in vivo. With the present test model it is possible to detect both NK2-antagonistic effects in three different organ systems (respiratory tracts, colon and circulation) and NK1-antagonistic effects (rapid drop in blood pressure) in an animal simultaneously.
Pirbright-White guinea pigs of a body weight of 500-700 g were anaesthetised with ketamine/xylazine (67/13 mg/kg subcutaneously, initial dose, further doses administered as required). The animals were provided with an intravenous catheter in order to administer the substance and an intra-arterial catheter to measure the blood pressure. The animals were artificially ventilated via a tracheal cannula and the respiratory pressure was recorded by means of a pressure transducer. A balloon was introduced into the distal colon of the animals for manometric recording of colon motility by means of a pressure transducer. Blood pressure, heart rate, respiratory pressure and colonic pressure were measured continuously for each animal and plotted on a recorder and by means of a digital data-processing system. […] The second phase of delayed hypotension (=phase of maximum hypotension after 2-5 min.) on the other hand is mediated via NK2-receptors, since they can be blocked by specific NK2-receptor antagonists.
These ED50 values obtained from cumulative dose effect curves are plotted in Table 13.

[1] = iv, read-out: ID50 (iv), inhibition of blood pressure
[2] = iv, read-out: ED50 iv after 1 min (cumulative), NK1 (early hypotension)

T3 sequence (P30547 whole entry): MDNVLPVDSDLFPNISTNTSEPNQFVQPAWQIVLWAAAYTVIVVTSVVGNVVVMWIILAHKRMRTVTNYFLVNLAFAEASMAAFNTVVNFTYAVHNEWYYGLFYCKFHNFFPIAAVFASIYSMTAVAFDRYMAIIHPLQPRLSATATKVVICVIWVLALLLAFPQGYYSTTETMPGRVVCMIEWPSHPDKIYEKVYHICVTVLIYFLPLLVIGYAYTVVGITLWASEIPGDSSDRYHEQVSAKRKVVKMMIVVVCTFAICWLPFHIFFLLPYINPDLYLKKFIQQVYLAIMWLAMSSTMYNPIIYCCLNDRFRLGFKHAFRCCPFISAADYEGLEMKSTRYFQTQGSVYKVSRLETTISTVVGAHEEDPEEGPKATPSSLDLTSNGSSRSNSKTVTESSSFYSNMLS

Row | Compound | Ki (human NK3 receptor) [nM] | ED50 (NK1-receptor; [2]) [µmol/kg] | pKi, binding potency to NK3-receptors (human NK3 receptor) | ED50 iv after 1 min (cumulative), NK1 (early hypotension) (NK1-receptor) [µmol/kg] | ED50 (NK3-receptor; [1]) [mg/kg] | ID50 (iv), inhibition of blood pressure (NK3-receptor) [mg/kg] | ID50 (po), inhibition of blood pressure (NK3-receptor) [mg/kg] | also measured
1 | CN(C)C(=O)C1(N2CCCCC2)CCN(CC[C@H](CN(C)C(=O)C2CCCCC2)c2ccc(Cl)c(Cl)c2)CC1 [compound 3] |  |  | 8.2 | >1.462 |  |  |  | 
2 | CN(C)C(=O)C1(N2CCCCC2)CCN(CC[C@H](CN(C)C(=O)c2cc(C#N)c3ccccc3c2)c2ccc(Cl)c(Cl)c2)CC1 [compound 11] |  |  | 7.9 | 0.433 |  | 1.0554 | 10 | ED50 AUC1-180 min oral, NK1 (early hypotension) (NK1-receptor; oral administration): 23.027 µmol/kg; NK-1-receptor-antagonistic activity on the early hypotension, in words (NK1-receptor; cumulative administration i.v., 1 min after administration): marked NK-1-receptor-antagonistic activity; oral activity as NK1 receptor antagonist, in words (NK1-receptor; oral administration): active as NK1 receptor antagonists
3 | CN(C)C(=O)C1(N2CCCCC2)CCN(CC[C@H](CN(C)C(=O)c2ccc(F)cc2F)c2ccc(Cl)c(Cl)c2)CC1 [compound 13] |  |  | 7.4 |  |  | 0.5013 | <10 | 
4 | CN(C)C(=O)C1(N2CCCCC2)CCN(CC[C@H](CN(C)C(=O)c2ccc(F)c(F)c2)c2ccc(Cl)c(Cl)c2)CC1 [compound 14] |  |  |  | >1.462 |  | 0.5168 | 6.811 | 
5 | CN(C)C(=O)C1(N2CCCCC2)CCN(CC[C@H](CN(C)C(=O)c2cc(F)ccc2F)c2ccc(Cl)c(Cl)c2)CC1 [compound 15] |  |  |  | >1.462 |  | 0.3732 |  | 
6 | CN(C)C(=O)C1(N2CCCCC2)CCN(CCC(CN(C)C(=O)c2ccc(Cl)nc2)c2ccc(Cl)c(Cl)c2)CC1 (stereo not drawn) [compound 18] | 5.01 | > 1.46 |  |  | 1.01 |  |  | 

Second part, led by results:

Row | Ki (human NK3 receptor) [nM] | ED50 (NK1-receptor; [2]) [µmol/kg] | pKi, binding potency to NK3-receptors (human NK3 receptor) | ED50 iv after 1 min (cumulative), NK1 (early hypotension) (NK1-receptor) [µmol/kg] | Compound | ED50 (NK3-receptor; [1]) [mg/kg] | ID50 (iv), inhibition of blood pressure (NK3-receptor) [mg/kg] | ID50 (po), inhibition of blood pressure (NK3-receptor) [mg/kg] | also measured
7 | 2.51 | > 0.46 |  |  | CN(C)C(=O)C1(N2CCCCC2)CCN(CC[C@H](CN(C)C(=O)c2ccccc2)c2ccc(Cl)c(Cl)c2)CC1 [compound 1] | 0.256 |  |  | ED50 (NK3-receptor; po, read-out: ID50 (po), inhibition of blood pressure): 6.38 mg/kg; ED50 (NK1-receptor; read-out: ED50 AUC1-180 min oral, NK1 (early hypotension)): > 3.2 µmol/kg
8 |  |  | 8.2 | >1.462 | CN(C)C(=O)C1(N2CCCCC2)CCN(CC[C@H](CN(C)C(=O)c2ccc(F)cc2)c2ccc(Cl)c(Cl)c2)CC1 [compound 4] |  | 0.7564 | 2.3313 | ED50 AUC1-180 min oral, NK1 (early hypotension) (NK1-receptor; oral administration): >10 µmol/kg
9 | 2 | > 1.46 |  |  | CN(C)C(=O)C1(N2CCCCC2)CCN(CC[C@H](CN(C)C(=O)c2ccc(O)cc2)c2ccc(Cl)c(Cl)c2)CC1 [compound 6, 1′-{(3S)-3-(3,4-dichlorophenyl)-4-[(4-hydroxybenzoyl)-(methyl)amino]butyl}-N,N-dimethyl-1,4′-bipiperidine-4′-carboxamide] | 0.157 |  |  | 
10 | 31.6 | > 1.46 |  |  | CN(C)C(=O)C1(N2CCCCC2)CCN(CCC(CN(C)C(=O)c2cccnc2)c2ccc(Cl)c(Cl)c2)CC1 (stereo not drawn) [compound 19] | 0.39 |  |  | 

From patent US20070219214A1, “Dual NK2/NK3-antagonists, pharmaceutical compositions comprising them, and processes for their preparation” (Solvay pharmaceuticals GmbH, priority 2006, published 2007)
